From US6682892B2, “Method for treating herpes viruses” (priority 2000, dated 2004)

Tests used:
HCMV V823A polymerase = molecular target: T1, HCMV V823A polymerase (Human cytomegalovirus, UniProt P08546, V823A); test: In vitro polymerase assay, mutant HCMV polymerase V823A; assay type: biochemical
T1 construct: made in house
T1 sequence (P08546 1-1242 V823A): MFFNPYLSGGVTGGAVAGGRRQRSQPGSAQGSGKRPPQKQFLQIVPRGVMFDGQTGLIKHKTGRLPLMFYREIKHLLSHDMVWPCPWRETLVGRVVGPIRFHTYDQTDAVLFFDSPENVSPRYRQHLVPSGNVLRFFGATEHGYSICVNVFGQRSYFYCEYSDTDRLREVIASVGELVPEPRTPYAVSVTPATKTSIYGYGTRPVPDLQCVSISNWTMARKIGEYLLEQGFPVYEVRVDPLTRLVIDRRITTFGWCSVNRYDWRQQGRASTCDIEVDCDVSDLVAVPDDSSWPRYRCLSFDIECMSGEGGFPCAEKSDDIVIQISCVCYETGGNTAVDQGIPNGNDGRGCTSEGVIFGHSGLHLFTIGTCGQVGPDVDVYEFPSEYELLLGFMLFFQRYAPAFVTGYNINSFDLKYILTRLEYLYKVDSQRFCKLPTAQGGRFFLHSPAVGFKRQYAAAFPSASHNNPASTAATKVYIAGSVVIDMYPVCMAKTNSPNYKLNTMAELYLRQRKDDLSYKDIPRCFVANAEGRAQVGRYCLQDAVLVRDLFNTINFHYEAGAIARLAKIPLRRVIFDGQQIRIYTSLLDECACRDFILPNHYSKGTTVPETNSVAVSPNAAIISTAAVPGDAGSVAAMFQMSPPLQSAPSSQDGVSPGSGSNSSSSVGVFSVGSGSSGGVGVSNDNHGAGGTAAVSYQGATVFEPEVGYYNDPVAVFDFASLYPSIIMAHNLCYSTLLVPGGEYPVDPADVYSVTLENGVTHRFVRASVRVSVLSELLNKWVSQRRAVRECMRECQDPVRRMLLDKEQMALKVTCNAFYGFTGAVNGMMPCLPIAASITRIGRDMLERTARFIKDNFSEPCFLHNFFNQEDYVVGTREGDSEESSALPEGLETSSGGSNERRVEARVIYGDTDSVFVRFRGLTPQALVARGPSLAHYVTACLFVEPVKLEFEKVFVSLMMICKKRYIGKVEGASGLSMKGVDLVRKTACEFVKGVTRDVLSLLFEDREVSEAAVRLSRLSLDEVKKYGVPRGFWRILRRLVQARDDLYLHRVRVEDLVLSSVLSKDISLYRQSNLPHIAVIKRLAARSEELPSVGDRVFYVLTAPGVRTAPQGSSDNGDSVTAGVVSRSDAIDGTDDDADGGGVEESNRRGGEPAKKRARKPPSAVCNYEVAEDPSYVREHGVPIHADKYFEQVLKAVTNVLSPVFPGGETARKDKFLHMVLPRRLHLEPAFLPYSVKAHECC
Procedure: In order to select for a 4-oxo-DHQ HCMV resistant mutant, virus (strain AD169) is serially passaged in the presence of 20 uM a 4-oxo-DHQ. […] In order to determine if both valines need to be changed in order to confer resistance to the 4-oxo-DHQ's, in vitro polymerase assays are done using mutant HCMV polymerases containing either V823A or V823A plus V824L (Table 3).

HSV-2 MS = test: Plaque reduction assay, HSV-2 MS; assay type: cell-based; details: Table 1, plaque reduction, Vero cells; read-out: IC50 (uM), HSV-2 MS
Procedure: (§1) Antiviral activity of compounds against herpesviruses such as HSV-1, HSV-2, or HCMV can be measured using plaque reduction assays. 0.1 ml of media containing approximately 50 PFU of virus is added to each well of a 24-well cell culture dish containing a confluent monolayer of cells (Vero cells for HSV-1 and HSV-2, HFF cells for HCMV). Compounds are dissolved in 100% DMSO and diluted in 100% DMSO as 200× stocks of the desired final drug concentration. Typically 5-6 two-fold dilutions are prepared for each compound. Dilutions of compounds are then added to media containing 0.8% CMC resulting in a final 1× drug concentration. After the virus-infected cells have incubated for 1 h at 37° C., the virus innoculum is removed and 1 ml of media containing 0.8% CMC and the various concentrations of compound is added to each well of the dish. The dish is incubated at 37° C. for approximately 2-3 days (HSV-1 and HSV-2) or 6-9 days (HCMV) to allow sufficient growth of virus to form plaques in the cell monolayer. Plaques can be observed and counted microscopically or by staining the cells with 0.1% crystal violet in 20% ethanol. […] Antiviral activity of a compound is expressed as the concentration of compound predicted to reduce the number of plaques in a well by 50% (IC50). The IC50 values are calculated by plotting the per cent inhibition vs. concentration of compound using EXCEL software for linear regression.
(§2) A panel of viruses consisting of four strains of HSV-1 (KOS, F, DJL, Patton) and three strains of HSV-2 (MS, 35D, 186) are tested in a plaque reduction assay against four different 4-oxo-DHQ compounds (#1, 2, 4, 5 as shown in FIG. 1), and one 4-oxo-DHTP compound (#3 as shown in FIG. 1) and against Acyclovir. The six drugs inhibited replication of the seven virus strains with IC50 values ranging from 2-10 μM (Table 1). In order to select for 4-oxo-DHQ resistant mutants, HSV-1 strains KOS, F, and DJL along with HSV-2 strains 186 and MS are serially passaged in the presence of 20 uM compound 1. Following the seventh passage, 4-oxo-DHQ resistant virus from each strain are plaque purified three times and high-titer stocks are made.

HSV-2 186-M1 (V828A) = test: Plaque reduction assay, 4-oxo-DHQ resistant HSV-2 186-M1; assay type: cell-based; details: Table 2, mutant V828A
Procedure: Antiviral activity of compounds against herpesviruses such as HSV-1, HSV-2, or HCMV can be measured using plaque reduction assays. 0.1 ml of media containing approximately 50 PFU of virus is added to each well of a 24-well cell culture dish containing a confluent monolayer of cells (Vero cells for HSV-1 and HSV-2, HFF cells for HCMV). Compounds are dissolved in 100% DMSO and diluted in 100% DMSO as 200× stocks of the desired final drug concentration. Typically 5-6 two-fold dilutions are prepared for each compound. Dilutions of compounds are then added to media containing 0.8% CMC resulting in a final 1× drug concentration. After the virus-infected cells have incubated for 1 h at 37° C., the virus innoculum is removed and 1 ml of media containing 0.8% CMC and the various concentrations of compound is added to each well of the dish. The dish is incubated at 37° C. for approximately 2-3 days (HSV-1 and HSV-2) or 6-9 days (HCMV) to allow sufficient growth of virus to form plaques in the cell monolayer. Plaques can be observed and counted microscopically or by staining the cells with 0.1% crystal violet in 20% ethanol. […] The IC50 values are calculated by plotting the per cent inhibition vs. concentration of compound using EXCEL software for linear regression. […]

HCMV AD169 = test: Plaque reduction assay, HCMV AD169; assay type: cell-based; details: Table 4, plaque reduction, wild type; read-out: HCMV AD169 IC50
Procedure: as §1

HSV-2 MS-M1 (V826A) = test: Plaque reduction assay, 4-oxo-DHQ resistant HSV-2 MS-M1; assay type: cell-based; details: Table 2, mutant V826A; read-out: IC50 (uM), HSV-2 MS-M1
Procedure: as §1
Vero cells are plated out at a density of 3.5×10^5 cells per well in a six well tissue culture plate. Cells are infected with HSV-1 KOS at a multiplicity of infection (moi) of 0.1 pfu/cell and 1 h post infection the cells are overlayed with 3 ml media containing 20 uM of a 4-oxo-DHQ. Cultures are incubated for 20 h at 37° C., freeze/thawed to release cell-associated virus, and 0.1 ml of culture is used to infect a new monolayer of Vero cells (one passage). Serial passage is repeated seven times in the presence of 20 uM drug. Virus isolates are then plaque purified three times prior to preparation of stocks. 4-oxo-DHQ resistant HSV-1 and HSV-2 may also be selected by the marker transfer method described below using wild-type HSV DNA and the corresponding mutant HSV polymerase gene.
as §2

In the case of `Cn1cc(C(=O)NCc2ccc(Cl)cc2)c(=O)c2cc(/C=C\CO)cc(F)c21` [Compound 1], the IC50 (HCMV V823A polymerase; Table 3) is reported as 17.2 µM, the “increase in resistance, HCMV V823A polymerase” value (HCMV V823A polymerase; relative to wild type polymerase) is reported as “*Generation of the valine to alanine at amino acid 823 of HCMV results in a 3.5-fold increase in resistance” and the IC50 (HSV-2 MS) is reported as 2 µM. It also gave an IC50 (HSV-2 186-M1 (V828A)) greater than 20 µM, an IC50 (HCMV AD169) of 700 nM and an IC50 (HSV-2 MS-M1 (V826A)) greater than 20 µM.
